Laboratory results as given in US20260070945A1, “MACROCYCLIC IMMUNOMODULATORS” (Bristol-Myers Squibb Company, priority 2022, published 2026).
pIC50: −log10 of the molar value. Where a SMILES comes first, the peptide text is derived from it. Bridges are numbered along the chain shown (N, C = ends). [ ]: non-standard residue; d: D form. The star is where a group is joined. Bip = N[C@@H](Cc1ccc(-c2ccccc2)cc1)C(=O)O; Phe(3-Me) = Cc1cccc(C[C@H](N)C(=O)O)c1; 4Pal = N[C@@H](Cc1ccncc1)C(=O)O; Cha = N[C@@H](CC1CCCCC1)C(=O)O; Carboxymethyl = O=C(O)C*; NMeA = CN[C@@H](C)C(=O)O; Orn = NCCC[C@H](N)C(=O)O; Aun = NCCCCCCCCCCC(=O)O; Dab = NCC[C@H](N)C(=O)O; AEEA = NCCOCCOCC(=O)O

Each compound was assayed against T1, PD-1/PD-L1 interaction (PE-labeled human PD-L1-Ig binding to Jurkat cell line over-expressing human PD-1) (Homo sapiens, UniProt Q15116) (assay: Jurkat-PD-1 Cell Binding High-Content Screening Assay (CBA)). Settings: Jurkat-hPD-1 cells, PE-labeled PD-L1-Ig 20 nM final; read-out: Jurkat HPD1 PDL1 IC50.
T1 construct: expressed in transfected cells; host or cells: Jurkat
T1 sequence (Q15116 25-288): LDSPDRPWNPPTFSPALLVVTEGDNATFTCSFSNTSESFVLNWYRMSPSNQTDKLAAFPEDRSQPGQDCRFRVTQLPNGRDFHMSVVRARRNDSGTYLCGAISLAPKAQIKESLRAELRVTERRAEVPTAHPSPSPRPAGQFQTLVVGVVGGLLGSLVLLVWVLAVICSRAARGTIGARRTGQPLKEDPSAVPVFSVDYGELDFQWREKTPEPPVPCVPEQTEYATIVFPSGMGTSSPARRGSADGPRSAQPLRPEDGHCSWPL
In short: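 Compound is added first to the PD-1-expressing Jurkat cells and held 2 h at 37 °C in serum-containing DMEM. The fluorescent PD-L1 fusion follows at 20 nM final for 1 h. Fixed, Hoechst-stained cells are then imaged for bound label.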
For Cc1cccc(C[C@@H]2NC(=O)[C@H](CC(=O)O)NC(=O)[C@H](Cc3ccc(OCC(=O)O)cc3)NC(=O)[C@H]([C@@H](C)O)NC(=O)CSC[C@@H](C(=O)N[C@@H](CCN)C(=O)NCCOCCOCC(=O)NCCCCCCCCCCC(=O)O)NC(=O)[C@H](CCCN)NC(=O)[C@H](C(C)C)NC(=O)[C@H](CC3CCCCC3)NC(=O)[C@H](CCC(=O)O)NC(=O)[C@@H](CC(C)C)NC(=O)[C@H](C)N(C)C(=O)[C@H](Cc3ccc(OCC(=O)O)cc3)NC(=O)[C@H](Cc3ccc(-c4ccccc4)cc3)NC(=O)[C@H](Cc3ccc(OCC(=O)O)cc3)NC2=O)c1 [Example 1376] ({CH2CO}-TY(Carboxymethyl)D[Phe(3-Me)]Y(Carboxymethyl)[Bip]Y(Carboxymethyl)[NMeA][dL]E[Cha]V[Orn]C[Dab][AEEA][Aun]-OH; thioether N-14), the pIC50 was 7.34. Cc1cccc(C[C@@H]2NC(=O)[C@H](CC(=O)O)NC(=O)[C@H](Cc3ccc(OCC(=O)O)cc3)NC(=O)[C@H]([C@@H](C)O)NC(=O)CSC[C@@H](C(=O)N[C@@H](CCN)C(=O)NCCOCCOCC(=O)NCCCCCCCCCCC(=O)O)NC(=O)[C@H](CC(N)=O)NC(=O)[C@H](C(C)C)NC(=O)[C@H](CC3CCCCC3)NC(=O)[C@H](CCC(=O)O)NC(=O)[C@@H](CC(C)C)NC(=O)[C@H](C)N(C)C(=O)[C@H](Cc3ccc(OCC(=O)O)cc3)NC(=O)[C@H](Cc3ccc(-c4ccccc4)cc3)NC(=O)[C@H](Cc3ccc(OCC(=O)O)cc3)NC2=O)c1 [Example 1377] ({CH2CO}-TY(Carboxymethyl)D[Phe(3-Me)]Y(Carboxymethyl)[Bip]Y(Carboxymethyl)[NMeA][dL]E[Cha]VNC[Dab][AEEA][Aun]-OH; thioether N-14) was tested, and the pIC50 was 7.51. CC(C)C[C@H]1NC(=O)[C@H](C)N(C)C(=O)[C@H](Cc2ccc(OCC(=O)O)cc2)NC(=O)[C@H](Cc2ccc(-c3ccccc3)cc2)NC(=O)[C@H](Cc2ccc(OCC(=O)O)cc2)NC(=O)[C@H](Cc2c[nH]c3ccccc23)NC(=O)[C@H](CC(=O)O)NC(=O)[C@H](Cc2ccncc2)NC(=O)[C@H](Cc2ccc(OCC(=O)O)cc2)NC(=O)CSC[C@@H](C(=O)N[C@@H](CCN)C(=O)NCCOCCOCC(=O)NCCCCCCCCCCC(=O)O)NC(=O)[C@H]([C@@H](C)O)NC(=O)[C@H](C(C)C)NC(=O)[C@H](CC2CCCCC2)NC(=O)[C@H](CC(N)=O)NC1=O [Example 1378] ({CH2CO}-Y(Carboxymethyl)[4Pal]DWY(Carboxymethyl)[Bip]Y(Carboxymethyl)[NMeA][dL]N[Cha]VTC[Dab][AEEA][Aun]-OH; thioether N-14) showed a pIC50 of 7.02. Compound CC(C)C[C@H]1NC(=O)[C@H](C)N(C)C(=O)[C@H](Cc2ccc(OCC(=O)O)cc2)NC(=O)[C@H](Cc2ccc(-c3ccccc3)cc2)NC(=O)[C@H](Cc2ccc(OCC(=O)O)cc2)NC(=O)[C@H](Cc2c[nH]c3ccccc23)NC(=O)[C@H](CC(=O)O)NC(=O)[C@H](Cc2ccncc2)NC(=O)[C@H](Cc2ccc(OCC(=O)O)cc2)NC(=O)CSC[C@@H](C(=O)N[C@@H](CCCN)C(=O)NCCOCCOCC(=O)NCCCCCCCCCCC(=O)O)NC(=O)[C@H]([C@@H](C)O)NC(=O)[C@H](C(C)C)NC(=O)[C@H](CC2CCCCC2)NC(=O)[C@H](CC(N)=O)NC1=O [Example 1379] ({CH2CO}-Y(Carboxymethyl)[4Pal]DWY(Carboxymethyl)[Bip]Y(Carboxymethyl)[NMeA][dL]N[Cha]VTC[Orn][AEEA][Aun]-OH; thioether N-14) has a pIC50 of 6.76. Compound CC(C)C[C@H]1NC(=O)[C@H](C)N(C)C(=O)[C@H](Cc2ccc(OCC(=O)O)cc2)NC(=O)[C@H](Cc2ccc(-c3ccccc3)cc2)NC(=O)[C@H](Cc2ccc(OCC(=O)O)cc2)NC(=O)[C@H](Cc2c[nH]c3ccccc23)NC(=O)[C@H](CC(=O)O)NC(=O)[C@H](Cc2ccncc2)NC(=O)[C@H](Cc2ccc(OCC(=O)O)cc2)NC(=O)CSC[C@@H](C(=O)N[C@@H](CCN)C(=O)NCCOCCOCC(=O)NCCCCCCCCCCC(=O)O)NC(=O)[C@H](CCCN)NC(=O)[C@H](C(C)C)NC(=O)[C@H](CC2CCCCC2)NC(=O)[C@H](CC(N)=O)NC1=O [Example 1380] ({CH2CO}-Y(Carboxymethyl)[4Pal]DWY(Carboxymethyl)[Bip]Y(Carboxymethyl)[NMeA][dL]N[Cha]V[Orn]C[Dab][AEEA][Aun]-OH; thioether N-14) has a pIC50 of 6.93. For CC(C)C[C@H]1NC(=O)[C@H](C)N(C)C(=O)[C@H](Cc2ccc(OCC(=O)O)cc2)NC(=O)[C@H](Cc2ccc(-c3ccccc3)cc2)NC(=O)[C@H](Cc2ccc(OCC(=O)O)cc2)NC(=O)[C@H](Cc2c[nH]c3ccccc23)NC(=O)[C@H](CC(=O)O)NC(=O)[C@H](Cc2ccncc2)NC(=O)[C@H](Cc2ccc(OCC(=O)O)cc2)NC(=O)CSC[C@@H](C(=O)N[C@@H](CCN)C(=O)NCCOCCOCC(=O)NCCCCCCCCCCC(=O)O)NC(=O)[C@H]([C@@H](C)O)NC(=O)[C@H](C(C)C)NC(=O)[C@H](CC2CCCCC2)NC(=O)[C@H](CCN)NC1=O [Example 1381] ({CH2CO}-Y(Carboxymethyl)[4Pal]DWY(Carboxymethyl)[Bip]Y(Carboxymethyl)[NMeA][dL][Dab][Cha]VTC[Dab][AEEA][Aun]-OH; thioether N-14), the pIC50 was 7.56. CC(C)C[C@H]1NC(=O)[C@H](C)N(C)C(=O)[C@H](Cc2ccc(OCC(=O)O)cc2)NC(=O)[C@H](Cc2ccc(-c3ccccc3)cc2)NC(=O)[C@H](Cc2ccc(OCC(=O)O)cc2)NC(=O)[C@H](Cc2c[nH]c3ccccc23)NC(=O)[C@H](CC(=O)O)NC(=O)[C@H](Cc2ccncc2)NC(=O)[C@H](Cc2ccc(OCC(=O)O)cc2)NC(=O)CSC[C@@H](C(=O)N[C@@H](CCCN)C(=O)NCCOCCOCC(=O)NCCCCCCCCCCC(=O)O)NC(=O)[C@H]([C@@H](C)O)NC(=O)[C@H](C(C)C)NC(=O)[C@H](CC2CCCCC2)NC(=O)[C@H](CCN)NC1=O [Example 1382] ({CH2CO}-Y(Carboxymethyl)[4Pal]DWY(Carboxymethyl)[Bip]Y(Carboxymethyl)[NMeA][dL][Dab][Cha]VTC[Orn][AEEA][Aun]-OH; thioether N-14) gave a pIC50 of 6.96. Compound CC(C)C[C@H]1NC(=O)[C@H](C)N(C)C(=O)[C@H](Cc2ccc(OCC(=O)O)cc2)NC(=O)[C@H](Cc2ccc(-c3ccccc3)cc2)NC(=O)[C@H](Cc2ccc(OCC(=O)O)cc2)NC(=O)[C@H](Cc2c[nH]c3ccccc23)NC(=O)[C@H](CC(=O)O)NC(=O)[C@H](Cc2ccc(OCC(=O)O)cc2)NC(=O)[C@H]([C@@H](C)O)NC(=O)CSC[C@@H](C(=O)N[C@@H](CCN)C(=O)NCCOCCOCC(=O)NCCCCCCCCCCC(=O)O)NC(=O)[C@H]([C@@H](C)O)NC(=O)[C@H](C(C)C)NC(=O)[C@H](CC2CCCCC2)NC(=O)[C@H](CC(N)=O)NC1=O [Example 1383] ({CH2CO}-TY(Carboxymethyl)DWY(Carboxymethyl)[Bip]Y(Carboxymethyl)[NMeA][dL]N[Cha]VTC[Dab][AEEA][Aun]-OH; thioether N-14) has a pIC50 of 7.00. CC(C)C[C@H]1NC(=O)[C@H](C)N(C)C(=O)[C@H](Cc2ccc(OCC(=O)O)cc2)NC(=O)[C@H](Cc2ccc(-c3ccccc3)cc2)NC(=O)[C@H](Cc2ccc(OCC(=O)O)cc2)NC(=O)[C@H](Cc2c[nH]c3ccccc23)NC(=O)[C@H](CC(=O)O)NC(=O)[C@H](Cc2ccc(OCC(=O)O)cc2)NC(=O)[C@H]([C@@H](C)O)NC(=O)CSC[C@@H](C(=O)N[C@@H](CCN)C(=O)NCCOCCOCC(=O)NCCCCCCCCCCC(=O)O)NC(=O)[C@H](CCCN)NC(=O)[C@H](C(C)C)NC(=O)[C@H](CC2CCCCC2)NC(=O)[C@H](CC(N)=O)NC1=O [Example 1384] ({CH2CO}-TY(Carboxymethyl)DWY(Carboxymethyl)[Bip]Y(Carboxymethyl)[NMeA][dL]N[Cha]V[Orn]C[Dab][AEEA][Aun]-OH; thioether N-14) showed a pIC50 of 6.72.
